Laboratory results from patent US5118670A, “Process and composition for increasing brain dopamine release” (Massachusetts Institute of Technology, priority 1988, dated 1992).

Tested on: striatal dopamine release
Assay: Effect of TRH and tyrosine on striatal dopamine release (in vivo microdialysis)
Set-up: species or system rats
Source text: Groups of 7 male albino rats were implanted with a jugular venous catheter (for administering the drugs and withdrawing blood samples), and a microdialysis probe into the corpus striatum (for sampling fluid in equilibrium with intrasynaptic fluids).
Animals were placed under deep urethane anesthesia for the duration of the experiment. Each animal received 10 micrograms of TRH or a saline placebo, and/or tyrosine at a dose of 20 micrograms per kilogram, or a saline placebo.
Microdialysis samples (23 microliters of artificial cerebrospinal fluid per sample) were then collected at 15 minute intervals for 150 minutes, and rapidly assayed for dopamine, its chief metabolites (DOPAC and HVA), serotonin, and the serotonin metabolite, 5-HIAA.

Compound | other compounds measured in microdialysate (DOPAC, HVA, serotonin, 5-HIAA) (TRH 10 micrograms alone, anesthetized rats, striatal microdialysis) | increase (from the baseline) in dopamine release (TRH 10 micrograms alone, via jugular venous catheter, urethane-anesthetized male albino rats, corpus striatum microdialysis, after two hours) | effect on dopamine release (higher dose of TRH (50 micrograms) without tyrosine, anesthetized rats, striatal microdialysis) | increase in dopamine release (tyrosine alone, 20 micrograms per kilogram, via jugular venous catheter, anesthetized rats, striatal microdialysis, after two hours)
NC(=O)[C@@H]1CCCN1C(=O)[C@H](Cc1c[nH]cn1)NC(=O)[C@@H]1CCC(=O)N1 [TRH, L-pyroglutamyl-L-histidyl-L-prolineamide] | stable | 190% | 750% | 
N[C@@H](Cc1ccc(O)cc1)C(=O)O [tyrosine] |  |  |  | about 110%
